The source of these data is patent US11446299B2, “Carbazole EHop-016 derivatives as anticancer and anti-migratory agents” (UNIVERSITY OF PUERTO RICO, priority 2017, dated 2022).

Assay [1] relates to SH-SY5Y neuroblastoma cells. The assay is described as follows: Growth inhibition, log dose-response. To be noted: Homo sapiens. The class given is cell-based. An excerpt:
FIG. 14 (A-B). Log dose-response curve for compound 8 in MCF-7 (FIG. 14A) and SH-SY5Y neuroblastoma (FIG. 14B) cells.

In the next assay the test system is MCF-7 cancer cells. The assay can be described thus: Sulforhodamine B (SRB) growth inhibition assay. To be noted: Homo sapiens, MCF7, 24 h treatment, mean of triplicate, SD <10%. The class given is cell-based. The method, then:
(§1) Various compounds were tested to evaluate the dose response curve for effect on MCF-7 cancer cells and MDA-MB-231 cancer cells. MCF-7 and MDA-MB-231 cells were cultured in 10% Minimum Essential Medium Eagle (MEME) supplemented with Earle's Balanced Salt Solution (EBSS), Non-essential Amino acids (NEAA), Sodium pyruvate, Pen/Strep, L-glutamine and Fetal Bovine Serum (FBS) at 37° C. in 5% CO2.
(§2) Sulforhodamine B (SRB) Assay: A stock solution of compounds was prepared at 50 mM in 100% DMSO. For cells preparation, a flask of 75 cm^2 or 25 cm^2 were used for 2.6×10^5 cells or 1.44×10^5 cells respectively with an 80-90% of confluence. Cells were washed with PBS and trypsinized. The concentration of cells was determined using a 1:2 dilutions with Trypan Blue and a hemocytometer. After cell count, the concentration was adjusted to have a 1.9×10^4 cells/well. Approximately […] of cells suspension, compounds, control positive and control negative were added in triplicates to a 96 well plate. Positive controls used were ellipticine, doxorubicin, and/or vincristine, and the negative control was DMSO 0.1%. All compounds at 50, 25, 12.5, 6.3, and 1.6 μM were incubated with cells at 37° C. for 24 hrs. For fixation, cold TCA 50% was used and incubated at 4° C. for 1 hr. Wells were washed and dried prior to tincture with 100 μL of SRB 0.4%. To remove excess of SRB, acetic acid was used. For analysis, TRIS-BASE Solution (pH=10.5) was used and shacked prior to reading using an ELISA reader at 510 nm and the software SoftMax Pro 4.8.
(§3) For each compound, 50% growth inhibition (GI50) was calculated from Sigmoidal dose-response curves (variable-slope) that were generated with data obtained from experiments carried out in triplicates (GI50 values were generated with GraphPad Prism V. 6.02, GraphPad Software, Inc.). The results are presented in FIGS. 4A-4B (MCF-7 cancer cells) and FIGS. 5A-5B (MDA-MB-231 cancer cells).

The test system of assay [2] is MDA-MB-231 breast cancer cells. The assay is described as follows: Wound healing assay (scratch method), cell migration. The note with it: for activity at 10 µM: percent relative migration at 10 μM after 24 h, relative to control, MDA-MB-231; for inhibition of migration in words: at a concentration of 0.2×IC50. The class given is cell-based, human. The method, then: The experimental data of anti-migratory activities for compounds 3a-d and 4a-f were obtained using MDA-MB-231 breast cancer cells. For the migration assay, a wound-healing assay (scratch-wound assay) was utilized in the presence of vehicle (0.02% DMSO) or compounds at […].
Prior to assays, cells were grown until 80-90% confluence was observed. A 75 cm2 flask was used for 2.6×10^5 cells/mL in 10 mL and for a 25 cm2 flask 1.44×10^5 cells/mL in 5 mL. The cells were washed with PBS to remove all traces of FBS. 2 mL was added for a 25 cm2 flasks or 4 mL for a 75 cm2 flasks trypsin, and incubated 5-10 min at 37° C. At the end of the incubation time, cells were re-suspended and counted with hemocytometer using 1:2 dilutions with Trypan blue. Subsequently, cell viability was calculated. In a 12 multiwell plate, the plastic pattern was used to draw a fine space with a fine marker on the bottom of the plate. Cells were seeded at 1.5-2.2×10^5 cells/mL in 1 mL and incubated for 24 h. Cells were then rinsed with PBS and incubated in starving media (0.5% FBS) overnight. All controls and drugs were tested in triplicate. The negative control for each drug was prepared according to the drug's DMSO concentration.
Drugs were diluted and the final concentration at each well […]. The wound was made using a sterile pipette tip of […]. Cells were then rinsed very gently with media without FBS and media with negative controls was added. After a 24 h incubation, the gap distance was evaluated using the software Lumera Infinity Analyze 6.4.0. Pictures were taken at 0, 8, 12 and 24 h using a 10× objective. The percentage of migration was calculated using the following formula: 100−[(X0/X0)]*100 for time 0 h measurements 100−[(X24/X0)]*100 for time 24 h measurements
The experimental data of anti-migratory activities for compounds 3a-d and 4a-f were obtained using MDA-MB-231 breast cancer cells, and results are summarized in Table 1. For the migration assay, we used a wound-healing assay (scratch-wound assay)^22 in the presence of vehicle (0.02% DMSO) or compounds at 10 μM (FIG. 6). […] However, compounds 3a, 3c, and 4a-f inhibited migration in the range of 1-9%.
(§4) An additional example of a compounds with modification in building block C was synthesized via a different procedure as represented in Scheme 2B (see FIG. 11B). The compounds that were synthesized were tested for their biological activity by determination of their cytotoxicity in MDA-MB-231 breast cancer cell lines as shown in Table 5. The cytotoxicity's are expressed as IC50, which indicates the concentration at which 50% of the cell growth is inhibited. Furthermore, the inhibition of cell migration was tested at a concentration of 0.2×IC50, or, when the IC50 was >50 μM at a concentration of 10 μM. For comparison, Table 5 also includes the Lipinski and drug-likeness parameters as calculated via the MolSoft platform.
Migration assays were performed via the Scratch Method as described previously.

In a further assay the test system is MDA-MB-231 cancer cells. The assay can be described thus: Sulforhodamine B (SRB) growth inhibition assay. The class given is cell-based, human. The note with it: Homo sapiens, MDA-MB-231; SRB assay, 24 h treatment, mean of triplicate, SD <10%. As for the experimental part:
as §1, §2, §3

Assay [3] relates to MDA-MB-231 breast cancer cell lines. The assay is described as follows: Cytotoxicity (IC50) of EHop-016 derivatives modified in building block C. The class given is cell-based. The note with it: Homo sapiens, concentration at which 50% of the cell growth is inhibited. The method, then:
as §4

One may read the GI50 as the concentration giving 50% growth inhibition. A higher GI50 goes with lower sensitivity of the cells. As a reminder, the IC50 is the concentration at which inhibition is half-maximal.

`CCn1c2ccccc2c2cc(Nc3cc(C)nc(NCCCN4CCOCC4)n3)ccc21` [Compound 8, N^4-(9-Ethyl-9H-carbazol-3-yl)-6-methyl-N^2-(3-morpholin-4-yl-propyl)-pyrimidine-2,4-diamine]: the results for the GI50 (in assay [1]; in the assay with MCF-7 cancer cells) were 6 µM and 9.5 µM, respectively.
For `CCn1c2ccccc2c2cc(NC(=O)c3ccccc3C(=O)NCCO)ccc21` [Compound 14f, N^1-(9-ethyl-9H-carbazol-3-yl)-N^2-(2-hydroxyethyl)phthalamide], the activity at 10 µM in assay [2] (Homo sapiens) stood at 98 ± 1.83%. In addition, the concentration for 50% growth inhibition (GI50) in the assay with MDA-MB-231 cancer cells and in the assay on MCF-7 cancer cells was more than 50 µM throughout.
Regarding `CCn1c2ccccc2c2cc(NC(=O)C3CCCCC3C(=O)NCCN3CCOCC3)ccc21` (stereo not shown) [Compound 14g], the activity at 10 µM in assay [2] (Homo sapiens) was determined as 99 ± 1.63%. In addition, the GI50 in the assay on MDA-MB-231 cancer cells and with MCF-7 cancer cells was more than 50 µM each time.
As to `CCn1c2ccccc2c2cc(NC(=O)C3CCCCC3C(=O)NCCCN3CCOCC3)ccc21` (stereo not shown) [Compound 14h, cyclohexane-1,2-dicarboxylic acid 1-[(9-ethyl-9H-carbazol-3-yl)-amide]-2-[(3-morpholin-4-yl-propyl)-amide]], the activity at 10 µM in assay [2] (Homo sapiens) amounted to 100 ± 0.56%. Moreover, the concentration for 50% growth inhibition (GI50) in the assay on MDA-MB-231 cancer cells and in the assay with MCF-7 cancer cells was more than 50 µM throughout.
As for `CCN(CC)CCCC(C)Nc1nccc(Nc2ccc3c(c2)c2ccccc2n3CC)n1` (stereo not shown) [Compound 32, N^2-(5-(diethylamino)pentan-2-yl)-N^4-(9-ethyl-9H-carbazol-3-yl)pyrimidine-2,4-diamine], the activity at 1.8 µM in assay [2] (Homo sapiens, MDA-MB-231, 24 h, at 1.8 μM (0.2×IC50)) is 99.9%. In assay [3], this compound displayed an IC50 of 9 µM.
For the compound `CCn1c2ccccc2c2cc(Nc3ccnc(NCCCn4ccnc4)n3)ccc21` [Compound 33, N^2-(3-(1H-imidazol-1-yl)propyl)-N^4-(9-ethyl-9H-carbazol-3-yl)pyrimidine-2,4-diamine], in assay [2] (Homo sapiens, MDA-MB-231, 24 h, at 1.51 μM (0.2×IC50)), the activity at 1.51 µM was determined as 100%. In assay [3], this compound registered an IC50 of 7.57 µM.
In the case of `CCn1c2ccccc2c2cc(Nc3ccnc(NCC4CCCCN4)n3)ccc21` (stereo not shown) [Compound 34, N^4-(9-ethyl-9H-carbazol-3-yl)-N^2-(piperidin-2-ylmethyl)pyrimidine-2,4-diamine], the activity at 0.39 µM in assay [2] (Homo sapiens, MDA-MB-231, 24 h, at 0.39 μM (0.2×IC50)) was found to be 100%. In assay [3], the IC50 came to 1.97 µM.
`CCn1c2ccccc2c2cc(Nc3ccnc(NCCC4CCCN4C)n3)ccc21` (stereo not shown) [Compound 35, N^4-(9-ethyl-9H-carbazol-3-yl)-N^2-(2-(1-methylpyrrolidin-2-yl)ethyl)pyrimidine-2,4-diamine]: the activity at 3.8 µM in assay [2] (Homo sapiens, MDA-MB-231, 24 h, at 3.8 μM (0.2×IC50)) came out at 89.1%. In addition, the “inhibition of migration in words” value in assay [2] is recorded as “inhibition of migration”. Also, the half-inhibitory concentration (IC50) in assay [3] worked out at 19.1 µM.
As to `CCn1c2ccccc2c2cc(Nc3ccnc(NCCO)n3)ccc21` [Compound 36, 2-((4-((9-ethyl-9H-carbazol-3-yl)amino)pyrimidin-2-yl)amino) ethanol], the activity at 2.92 µM in assay [2] (Homo sapiens, MDA-MB-231, 24 h, at 2.92 μM (0.2×IC50)) was 94.8%. The same compound returned an IC50 in assay [3] of 14.6 µM.
As to `CCn1c2ccccc2c2cc(Nc3ccnc(NCCOCCO)n3)ccc21` [Compound 37, 2-(2-((4-((9-ethyl-9H-carbazol-3-yl)amino)pyrimidin-2-yl)amino)ethoxy)ethanol], the activity at 3.07 µM in assay [2] (Homo sapiens, MDA-MB-231, 24 h, at 3.07 μM) was determined as 100%. Besides, the concentration for half-maximal inhibition (IC50) in assay [3] is more than 50 µM.
Take `CCn1c2ccccc2c2cc(Nc3ccnc(NCCOC)n3)ccc21` [Compound 38, N^4-(9-ethyl-9H-carbazol-3-yl)-N^2-(2-methoxyethyl)pyrimidine-2,4-diamine]: in assay [2] (Homo sapiens, MDA-MB-231, 24 h, at 2.8 μM), the activity at 2.8 µM came out at 96.7%. In assay [3], this compound displayed an IC50 of more than 50 µM.
With `CCn1c2ccccc2c2cc(Nc3ccnc(NCc4ccc(OC)cc4OC)n3)ccc21` [Compound 39, N^2-(2,4-dimethoxybenzyl)-N^4-(9-ethyl-9H-carbazol-3-yl) pyrimidine-2,4-diamine], the activity at 0.92 µM in assay [2] (Homo sapiens, MDA-MB-231, 24 h, at 0.92 μM) amounted to 103%. In assay [3], this compound returned a concentration for half-maximal inhibition (IC50) of more than 50 µM.
On to `CCn1c2ccccc2c2cc(Nc3ccnc(Nc4c(OC)cc(OC)cc4OC)n3)ccc21` [Compound 40, N^4-(9-ethyl-9H-carbazol-3-yl)-N^2-(2,4,6-trimethoxyphenyl) pyrimidine-2,4-diamine], for which the activity at 1.54 µM in assay [2] (Homo sapiens, MDA-MB-231, 24 h, at 1.54 μM (0.2×IC50)) worked out at 80.2%. Also, the “inhibition of migration in words” value in assay [2] is given as “inhibition of migration”. The same compound returned an IC50 in assay [3] of 7.7 µM.
Regarding `CCn1c2ccccc2c2cc(Nc3ccnc(NC(=O)Nc4cc(Cl)c(OC)cc4OC)n3)ccc21` [Compound 41, 1-(5-chloro-2,4-dimethoxyphenyl)-3-(4-((9-ethyl-9H-carbazol-3-yl)amino)pyrimidin-2-yl)urea], the activity at 1 µM in assay [2] (Homo sapiens, MDA-MB-231, 24 h, at 1 μM) turned out to be 77.3%. Besides, in assay [2], the “inhibition of migration in words” value is on record as “inhibition of migration”. The compound further gave a concentration for half-maximal inhibition (IC50) in assay [3] of 10.9 µM.
